From patent US11918590B2 (Intas Pharmaceuticals Ltd., priority 2021, dated 2024)
≈ marks a conversion by molar mass, not a printed value. Like-named read-outs stand apart in the source and are kept apart here.

How the values were obtained:
[1] = cited from earlier work
[2] = Solubility study of clozapine at various pH and solvent; assay type: physicochemical
[3] = pH 4.0 to 4.5 of Acetate buffer

For `CN1CCN(C2=Nc3cc(Cl)ccc3Nc3ccccc32)CC1` [Clozapine, 8-chloro-11-(4-methyl-1-piperazinyl)-5H-dibenzo [b,e][1,4] diazepine], the solubility in water [1] is given as “very slightly soluble in water”.
In the case of `CN1CCN(C2=Nc3cc(Cl)ccc3Nc3ccccc32)CC1` [Micronized, Clozapine], the “Solubility” value ([2]; 0.1N Hydrochloric acid) is reported as 28727 µg/mL (≈ 87900 µM), the “Solubility” value ([2]; Purified Water) is reported as 31 µg/mL (≈ 94.9 µM) and the “Solubility” value [2, 3] is reported as 4773 µg/mL (≈ 14600 µM). For the same molecule, the “Solubility” value ([2]; pH 6.8 of Phosphate buffer) was 121 µg/mL (≈ 370 µM).
In the case of `CN1CCN(C2=Nc3cc(Cl)ccc3Nc3ccccc32)CC1` [Un-micronized, Clozapine], the “Solubility” value ([2]; 0.1N Hydrochloric acid) is reported as 418 µg/mL (≈ 1280 µM), the “Solubility” value [2, 3] is reported as 730 µg/mL (≈ 2230 µM) and the Solubility ([2]; phosphate buffer, pH 6.8, aqueous buffer, thermodynamic from solid, pH 6.8 of Phosphate buffer, read-out: Solubility) is reported as 100 µg/mL (≈ 306 µM). For the same molecule, the Solubility ([2]; purified water, water, thermodynamic from solid, Purified Water, read-out: Solubility) was 40 µg/mL (≈ 122 µM).
